Where “and” joins values, the source holds several entries; their conditions need not be identical. Equal entries are not always repeated.
What was measured:
Format in all cases: in vivo
Conditions in all cases: ten days after application
Wheat = experiment: Example B1: post-emergent application of herbicide of formula I with/without safener, greenhouse, wheat
Description: Post-emergent Applications of Mixtures of a Herbicide of Formula I with a Safener of Formulae IIa to IIq to Cereals
(§1) Under greenhouse conditions, wheat is grown in plastic pots to the 2.5-leaf stage. In this stage, both the herbicide of formula I alone and the mixture of the herbicide with a safener of formulae IIa to IIq are applied to the test plants. The test substances (Formulation Examples F3 a) and b)) are applied as aqueous suspension with 500 l water/ha. Ten days after the application, the results are evaluated on a percent scale.

Setaria [1] = experiment: Example B1: post-emergent application of herbicide of formula I with/without safener, greenhouse, Setaria
Raphanus [2] = experiment: Example B3: post-emergent application of herbicide of formula I with/without safener, greenhouse, Raphanus
Setaria [3] = experiment: Example B3: post-emergent application of herbicide of formula I with/without safener, greenhouse, Setaria
Durum wheat = experiment: Example B3: post-emergent application of herbicide of formula I with/without safener, greenhouse, durum wheat
Description: Post-emergent Applications of Mixtures of a Herbicide of Formula I with a Safener of Formulae IIa to IIq to Durum Wheat.
as §1, with “conditions, durum” for “conditions,”

Chenopodium [4] = experiment: Example B1: post-emergent application of herbicide of formula I with/without safener, greenhouse, Chenopodium
Chenopodium [5] = experiment: Example B3: post-emergent application of herbicide of formula I with/without safener, greenhouse, Chenopodium
Setaria [6] = experiment: Example B2: post-emergent application of herbicide of formula I with/without safener, greenhouse, Setaria
Emex [7] = experiment: Example B1: post-emergent application of herbicide of formula I with/without safener, greenhouse, Emex
Emex [8] = experiment: Example B3: post-emergent application of herbicide of formula I with/without safener, greenhouse, Emex
Emex [9] = experiment: Example B2: post-emergent application of herbicide of formula I with/without safener, greenhouse, Emex
Raphanus [10] = experiment: Example B1: post-emergent application of herbicide of formula I with/without safener, greenhouse, Raphanus
Chenopodium [11] = experiment: Example B2: post-emergent application of herbicide of formula I with/without safener, greenhouse, Chenopodium
Barley = experiment: Example B2: post-emergent application of herbicide of formula I with/without safener, greenhouse, barley
Description: Post-emergent Applications of Mixtures of a Herbicide of Formula I with a Safener of Formulae IIa to IIq to barley
as §1, with “barley” for “wheat”

Raphanus [12] = experiment: Example B2: post-emergent application of herbicide of formula I with/without safener, greenhouse, Raphanus
[13] = Herbicide of formula 1 alone 15 g/ha
[14] = Herbicide of formula 1 alone 60 g/ha
[15] = Herbicide of formula 1 alone 250 g/ha
[16] = Herbicide of formula 1 15 g/ha + safener 4 g/ha
[17] = Herbicide of formula 1 250 g/ha + safener 60 g/ha
[18] = Herbicide of formula 1 60 g/ha + safener 15 g/ha

## COc1nn(C(=O)NS(=O)(=O)c2ccccc2OC(F)(F)F)c(=O)n1C [Herbicide of formula 1]
Wheat; [13]
  damage to Wheat, percent scale: 10%
Wheat; [14]
  damage to Wheat, percent scale: 20%
Setaria [1]; [13]
  herbicidal effect on Setaria, percent scale: 70%
Setaria [1]; [14]
  herbicidal effect on Setaria, percent scale: 80%
Raphanus [2]; [15]
  herbicidal effect on Raphanus, percent scale: 90%
Setaria [3]; [15]
  herbicidal effect on Setaria, percent scale: 80%
Durum wheat; [15]
  damage to Durum wheat, percent scale: 30%
Chenopodium [4]; [13]
  herbicidal effect on Chenopodium, percent scale: 90% and 80%
Chenopodium [4]; [14]
  herbicidal effect on Chenopodium, percent scale: 90%
Chenopodium [5]; [15]
  herbicidal effect on Chenopodium, percent scale: 90%
Setaria [6]; [13]
  herbicidal effect on Setaria, percent scale: 70%
Setaria [6]; [14]
  herbicidal effect on Setaria, percent scale: 80%
Emex [7]; [13]
  herbicidal effect on Emex, percent scale: 80%
Emex [7]; [14]
  herbicidal effect on Emex, percent scale: 90%
Emex [8]; [15]
  herbicidal effect on Emex, percent scale: 90%
Emex [9]; [13]
  herbicidal effect on Emex, percent scale: 80%
Emex [9]; [14]
  herbicidal effect on Emex, percent scale: 90%
Raphanus [10]; [13]
  herbicidal effect on Raphanus, percent scale: 80%
Raphanus [10]; [14]
  herbicidal effect on Raphanus, percent scale: 80%
Chenopodium [11]; [13]
  herbicidal effect on Chenopodium, percent scale: 90%
Chenopodium [11]; [14]
  herbicidal effect on Chenopodium, percent scale: 90%
Barley; [13]
  damage to Barley, percent scale: 30%
Barley; [14]
  damage to Barley, percent scale: 40%
Raphanus [12]; [13]
  herbicidal effect on Raphanus, percent scale: 80%
Raphanus [12]; [14]
  herbicidal effect on Raphanus, percent scale: 80%

## CCCCCC(C)OC(=O)COc1ccc(Cl)c2cccnc12 (stereo not shown) [Safener no. 1,01]
Wheat; [16]
  damage to Wheat, percent scale: 5%
Setaria [1]; [16]
  herbicidal effect on Setaria, percent scale: 70%
Chenopodium [4]; [16]
  herbicidal effect on Chenopodium, percent scale: 90%
Emex [7]; [16]
  herbicidal effect on Emex, percent scale: 90%
Raphanus [10]; [16]
  herbicidal effect on Raphanus, percent scale: 80%

## COC(=O)c1cc(-c2ccccc2)n(-c2ccccc2Cl)n1 [Safener no. 2,01]
Raphanus [2]; [17]
  herbicidal effect on Raphanus, percent scale: 80%
Setaria [3]; [17]
  herbicidal effect on Setaria, percent scale: 80%
Durum wheat; [17]
  damage to Durum wheat, percent scale: 10%
Chenopodium [5]; [17]
  herbicidal effect on Chenopodium, percent scale: 95%
Setaria [6]; [16]
  herbicidal effect on Setaria, percent scale: 70%
Setaria [6]; [18]
  herbicidal effect on Setaria, percent scale: 70%
Emex [8]; [17]
  herbicidal effect on Emex, percent scale: 90%
Emex [9]; [16]
  herbicidal effect on Emex, percent scale: 90%
Emex [9]; [18]
  herbicidal effect on Emex, percent scale: 90%
Chenopodium [11]; [16]
  herbicidal effect on Chenopodium, percent scale: 90%
Chenopodium [11]; [18]
  herbicidal effect on Chenopodium, percent scale: 90%
Barley; [16]
  damage to Barley, percent scale: 0%
Barley; [18]
  damage to Barley, percent scale: 10%
Raphanus [12]; [16]
  herbicidal effect on Raphanus, percent scale: 80%
Raphanus [12]; [18]
  herbicidal effect on Raphanus, percent scale: 80%

## CCOC(=O)c1nc(C(Cl)(Cl)Cl)n(-c2ccc(Cl)cc2Cl)n1 [Safener no. 2,05]
Setaria [6]; [18]
  herbicidal effect on Setaria, percent scale: 80%
Emex [9]; [18]
  herbicidal effect on Emex, percent scale: 90%
Chenopodium [11]; [18]
  herbicidal effect on Chenopodium, percent scale: 90%
Barley; [18]
  damage to Barley, percent scale: 30%
Raphanus [12]; [18]
  herbicidal effect on Raphanus, percent scale: 90%

## CCOC(=O)C1=NN(c2ccc(Cl)cc2Cl)C(C)(C(=O)OCC)C1 (stereo not shown) [Safener no. 3,03]
Wheat; [16]
  damage to Wheat, percent scale: 5%
Setaria [1]; [16]
  herbicidal effect on Setaria, percent scale: 70%
Chenopodium [4]; [16]
  herbicidal effect on Chenopodium, percent scale: 90%
Setaria [6]; [18]
  herbicidal effect on Setaria, percent scale: 80%
Emex [7]; [16]
  herbicidal effect on Emex, percent scale: 90%
Emex [9]; [18]
  herbicidal effect on Emex, percent scale: 90%
Raphanus [10]; [16]
  herbicidal effect on Raphanus, percent scale: 80%
Chenopodium [11]; [18]
  herbicidal effect on Chenopodium, percent scale: 80%
Barley; [18]
  damage to Barley, percent scale: 30%
Raphanus [12]; [18]
  herbicidal effect on Raphanus, percent scale: 80%

## FC(F)(F)C(=NOCC1OCCO1)c1ccc(Cl)cc1 [Safener no. 6.02]
Wheat; [18]
  damage to Wheat, percent scale: 10%
Setaria [1]; [18]
  herbicidal effect on Setaria, percent scale: 80%
Chenopodium [4]; [18]
  herbicidal effect on Chenopodium, percent scale: 80%
Setaria [6]; [18]
  herbicidal effect on Setaria, percent scale: 80%
Emex [7]; [18]
  herbicidal effect on Emex, percent scale: 90%
Emex [9]; [18]
  herbicidal effect on Emex, percent scale: 90%
Raphanus [10]; [18]
  herbicidal effect on Raphanus, percent scale: 80%
Chenopodium [11]; [18]
  herbicidal effect on Chenopodium, percent scale: 80%
Barley; [18]
  damage to Barley, percent scale: 30%
Raphanus [12]; [18]
  herbicidal effect on Raphanus, percent scale: 80%

Reference: patent US20030050192A1, “Herbicidal composition” (priority 1998, published 2003)
